Experimental data taken from patent US7794987B2, “Method for treating central neuropathic pain” (UCB Pharma GmbH, priority 2003, dated 2010).

Key:
spinally injured rats [1] = assay: Repeated administration of SPM 927 in spinally injured rats (von Frey hairs, brushing, cold); type: in vivo, Sprague-Dawley rats; settings: 20 mg/kg twice a day
Experimental: (§1) Male and female Sprague-Dawley rats (Möllegard, Denmark) weighing 200-250 g at the start of the experiments were used.
(§2) Ischemic spinal cord injury was produced in female rats according to methods described previously (Xu et al., 1992). In brief, the rats were anesthetized with chloral hydrate (300 mg/kg, i.p.) and a midline incision was made on the skin overlying vertebral segments T12-L1. The animals were positioned beneath an argon laser beam and irradiated for 10 min with the beam directed towards vertebral segment T12 or T13 (spinal segments L3-5). Immediately prior to and 5 min after the start of the irradiation, erythrosin B (Red No 3, Aldrich-Chemie, Steinheim, Germany) dissolved in 0.9% saline was injected intravenously through the tail vein at a dose of 32.5 mg/kg. A tunable argon ion laser (Innova model 70, Coherent Laser Product Division, Palo Alto, Calif.) operating at 514 nm was used. The average beam output power was 160 mW. The beam covered the entire width of the vertebra and the length of the beam was 1-2 mm. After irradiation, the wound was closed in layers and the rats were allowed to recover. The bladder was emptied manually for 1 week.
(§3) The vocalization threshold to graded mechanical touch/pressure stimuli were tested with von Frey hairs. During testing the rats were gently restrained in a standing position and the von Frey hair was pushed onto the skin until the filament became bent. The frequency of stimulation was about 1/s and at each intensity the stimulus was applied 5-10 times. The intensity of stimulation which induced consistent vocalization (>75% response rate) was considered as pain threshold.
(§4) The response of rats to brushing stimulation was tested with the blunt point of a pencil gently stroking the skin on the trunk in a rostro-caudal direction. The frequency of the stimulation was about 1/s and responses were graded with a score of 0=no observable response; 1=transient vocalization and moderate effort to avoid probe; 2=consistent vocalization and aversive reactions and 3=sustained and prolonged vocalization and aggressive behaviours.
(§5) Response to cold was tested with ethyl chloride spray applied to the shaved allodynic skin area. The response was graded with a score of 0=no observable response; 1=localized response (skin twitch and contraction), no vocalization; 2=transient vocalization, moderate struggle and 3=sustained vocalization and aggression.
(§6) SPM 927 was dissolved in physiological saline and injected intraperitoneally. The data for von Frey hairs, brushing and cold are expressed as median±median absolute deviation (M.A.D.) and analysed with Wilcoxon signed-ranks test or paired t-test.
The animals were injected with 20 mg/kg SPM 927 twice a day. The pre-drug response and the response 1 h after injection were assessed in the morning session. […] The normalization of basal sensitivity lasted at least 8 days without signs of tolerance.

spinally injured rats [2] = assay: Single dose of SPM 927 on allodynia-like behaviours in spinally injured rats (von Frey hairs, brushing, cold); type: in vivo, Sprague-Dawley rats; settings: intraperitoneally
Experimental: as §1, §2, §3, §4, §5, §6

COC[C@@H](NC(C)=O)C(=O)NCc1ccccc1 [SPM 927, (R)-2-acetamide-N-benzyl-3-methoxypropionamide]
vocalization threshold to von Frey hair stimulation 1 h after injection (spinally injured rats [1]; days 1-3): increase in vocalization threshold | allodynia to stimulation with von Frey hairs and cold after discontinuation (spinally injured rats [1]; discontinued after day 7): reappeared on day 9 | effect on brush stimulation after discontinuation (spinally injured rats [1]; discontinued after day 7): maintained up to day 11 | pre-drug response to von Frey hair stimulation (spinally injured rats [1]; FIG. 2A): normalized on day 4 | baseline responses to brushing and cold (spinally injured rats [1]; FIG. 2B, 2C): normalized from day 2 to day 6 respectively | duration of normalization of basal sensitivity (spinally injured rats [1]; without signs of tolerance): at least 8 days | effect on mechanical and cold allodynia (spinally injured rats [2]; 10 mg/kg): no effect | effect on mechanical and cold allodynia (spinally injured rats [2]; 15 mg/kg): partially alleviated mechanical and cold allodynia in the majority, but not all, rats | effect on brushing and cold (spinally injured rats [2]; 15 mg/kg, FIG. 1B, C): significant effect | increase in threshold to stimulation with von Frey hairs (spinally injured rats [2]; 15 mg/kg, FIG. 1a): significant, but did not return to normal level | duration of complete reversal of mechanical and cold allodynia (spinally injured rats [2]; 20 mg/kg): about 2 h | effect on mechanical and cold allodynia (spinally injured rats [2]; 20 mg/kg): completely reversed mechanical and cold allodynia in all rats
